Reference: ChEMBL document CHEMBL4387766, “Synthesis and biological evaluation of PSMA-targeting paclitaxel conjugates” (Bioorg Med Chem Lett, 2019)

Experiments:
[1] = Cytotoxicity against human VA13 cells assessed as reduction in cell viability measured after 72 hrs by MTT assay; assay type: cell-based; conditions: WI-38 VA13 cells
LNCaP = test: Cytotoxicity against PSMA-positive human LNCAP cells assessed as reduction in cell viability measured after 72 hrs by MTT assay; assay type: functional
CWR22R = test: Cytotoxicity against PSMA-positive human 22Rv1 cells assessed as reduction in cell viability measured after 72 hrs by MTT assay; assay type: functional; conditions: 22Rv1, 72 h
PC-3 = test: Cytotoxicity against PSMA-deficient human PC3 cells assessed as reduction in cell viability measured after 72 hrs by MTT assay; assay type: functional; conditions: PC-3, 72 h
[2] = Cytotoxicity against HEK293T cells assessed as reduction in cell viability measured after 72 hrs by MTT assay; assay type: cell-based, HEK-293T; conditions: human
[3] = Cytotoxicity against human MCF7 cells assessed as reduction in cell viability measured after 72 hrs by MTT assay; assay type: cell-based
[4] = Cytotoxicity against human A549 cells assessed as reduction in cell viability measured after 72 hrs by MTT assay; assay type: cell-based
[5] = Selectivity ratio of CC50 for human PSMA-deficient PC3 cells to CC50 for PSMA-positive human LNCAP cells; assay type: functional
[6] = Selectivity ratio of CC50 for human VA13 cells to CC50 for PSMA-positive human LNCAP cells
[7] = Selectivity ratio of CC50 for human PSMA-deficient PC3 cells to CC50 for PSMA-positive human 22Rv1 cells; assay type: functional
[8] = Selectivity ratio of CC50 for human VA13 cells to CC50 for PSMA-positive human 22Rv1 cells

Row | Structure (SMILES) | CC50 at 72 h [1] | CC50 (LNCaP) | CC50 (CWR22R) | CC50 (PC-3) | CC50 at 72 h [2] | CC50 at 72 h [3] | CC50 at 72 h [4] | Selectivity ratio [5] | Selectivity ratio [6] | Selectivity ratio [7] | Selectivity ratio [8]
1 | CC(=O)O[C@H]1C(=O)[C@]2(C)[C@@H](OC(=O)CCCc3cn(CCCCCCCCCCC(=O)NCCCC[C@H](NC(=O)N[C@@H](CCC(=O)O)C(=O)O)C(=O)O)nn3)C[C@H]3OC[C@@]3(OC(C)=O)[C@H]2[C@H](OC(=O)c2ccccc2)[C@]2(O)C[C@H](OC(=O)[C@H](O)[C@@H](NC(=O)c3ccccc3)c3ccccc3)C(C)=C1C2(C)C | 1.16 µM | 1.01 µM | 2.64 µM | 2.92 µM | 0.73 µM | 1.21 µM | 0.632 µM | 1.43 | 0.53 | 1.61 | 0.59
2 | CC(=O)O[C@H]1C(=O)[C@@]2(C)[C@H]([C@H](OC(=O)c3ccccc3)[C@]3(O)C[C@H](OC(=O)[C@H](OC(=O)CCCc4cn(CCCCCC(=O)N(CCCC[C@H](NC(=O)N[C@@H](CCC(=O)O)C(=O)O)C(=O)O)Cc5ccc(F)cc5)nn4)[C@@H](NC(=O)c4ccccc4)c4ccccc4)C(C)=C1C3(C)C)[C@]1(OC(C)=O)CO[C@@H]1C[C@@H]2O | < 0.03 µM | 0.365 µM | 1.31 µM | 0.74 µM | < 0.03 µM | 0.049 µM | < 0.03 µM | 1.01 | 0.59 | 0.82 | 0.48
3 | CC(=O)O[C@H]1C(=O)[C@@]2(C)[C@H]([C@H](OC(=O)c3ccccc3)[C@]3(O)C[C@H](OC(=O)[C@H](OC(=O)CCCc4cn(CCCCCCCCCCC(=O)N(CCCC[C@H](NC(=O)N[C@@H](CCC(=O)O)C(=O)O)C(=O)O)Cc5ccc(Br)cc5)nn4)[C@@H](NC(=O)c4ccccc4)c4ccccc4)C(C)=C1C3(C)C)[C@]1(OC(C)=O)CO[C@@H]1C[C@@H]2O | < 0.03 µM | 0.067 µM | 0.053 µM | 0.025 µM | < 0.03 µM | 0.034 µM | < 0.03 µM | 0.18 | 0.38 | 0.7 | 1.46
4 | CC(=O)O[C@H]1C(=O)[C@@]2(C)[C@H]([C@H](OC(=O)c3ccccc3)[C@]3(O)C[C@H](OC(=O)[C@H](OC(=O)CCCc4cn(CCCCCCCCCCC(=O)NCCCC[C@H](NC(=O)N[C@@H](CCC(=O)O)C(=O)O)C(=O)O)nn4)[C@@H](NC(=O)c4ccccc4)c4ccccc4)C(C)=C1C3(C)C)[C@]1(OC(C)=O)CO[C@@H]1C[C@@H]2O | 0.066 µM | 0.835 µM | 1.01 µM | 1.23 µM | 0.294 µM | 0.189 µM | 0.02 µM | 0.99 | 0.7 | 1.2 | 0.85
5 | CC(=O)O[C@H]1C(=O)[C@@]2(C)[C@H]([C@H](OC(=O)c3ccccc3)[C@]3(O)C[C@H](OC(=O)[C@H](OC(=O)CCCc4cn(CCCCCNC(=O)NCCCC[C@H](NC(=O)N[C@@H](CCC(=O)O)C(=O)O)C(=O)O)nn4)[C@@H](NC(=O)c4ccccc4)c4ccccc4)C(C)=C1C3(C)C)[C@]1(OC(C)=O)CO[C@@H]1C[C@@H]2O | 0.037 µM | 0.013 µM | 0.034 µM | 0.025 µM | 0.014 µM | 0.056 µM |  | 0.99 | 0.56 | 1.09 | 0.61
6 | CC(=O)O[C@H]1C(=O)[C@@]2(C)[C@H]([C@H](OC(=O)c3ccccc3)[C@]3(O)C[C@H](OC(=O)[C@H](OC(=O)CCCc4cn(CCCCCCCCCCC(=O)N(CCCC[C@H](NC(=O)N[C@@H](CCC(=O)O)C(=O)O)C(=O)O)Cc5ccc(F)cc5)nn4)[C@@H](NC(=O)c4ccccc4)c4ccccc4)C(C)=C1C3(C)C)[C@]1(OC(C)=O)CO[C@@H]1C[C@@H]2O | 0.027 µM | 0.467 µM | 1.15 µM | 0.479 µM | 0.041 µM | 0.066 µM | < 0.03 µM | 0.51 | 0.54 | 0.62 | 0.65
7 | CC(=O)O[C@H]1C(=O)[C@@]2(C)[C@H]([C@H](OC(=O)c3ccccc3)[C@]3(O)C[C@H](OC(=O)[C@H](OC(=O)CCCc4cn(CCCCCCCCCCNC(=O)NCCCC[C@H](NC(=O)N[C@@H](CCC(=O)O)C(=O)O)C(=O)O)nn4)[C@@H](NC(=O)c4ccccc4)c4ccccc4)C(C)=C1C3(C)C)[C@]1(OC(C)=O)CO[C@@H]1C[C@@H]2O | 0.101 µM | 0.06 µM | 0.132 µM | 0.075 µM | 0.042 µM | 0.162 µM | 0.005 µM | 0.63 | 0.71 | 0.83 | 0.93
8 | CC(=O)O[C@H]1C(=O)[C@@]2(C)[C@H]([C@H](OC(=O)c3ccccc3)[C@]3(O)C[C@H](OC(=O)[C@H](OC(=O)CCCc4cn(CCCCCCCCCCC(=O)N(CCCC[C@H](NC(=O)N[C@@H](CCC(=O)O)C(=O)O)C(=O)O)Cc5ccc(Cl)cc5)nn4)[C@@H](NC(=O)c4ccccc4)c4ccccc4)C(C)=C1C3(C)C)[C@]1(OC(C)=O)CO[C@@H]1C[C@@H]2O | 0.024 µM | 0.044 µM | 0.12 µM | 0.02 µM | 0.023 µM | 0.0565 µM | < 0.03 µM | 0.22 | 0.43 | 0.24 | 0.47
9 | CC(=O)O[C@H]1C(=O)[C@@]2(C)[C@H]([C@H](OC(=O)c3ccccc3)[C@]3(O)C[C@H](OC(=O)[C@H](OC(=O)CCCc4cn(CCCCCC(=O)N(CCCC[C@H](NC(=O)N[C@@H](CCC(=O)O)C(=O)O)C(=O)O)Cc5ccc(O)cc5)nn4)[C@@H](NC(=O)c4ccccc4)c4ccccc4)C(C)=C1C3(C)C)[C@]1(OC(C)=O)CO[C@@H]1C[C@@H]2O | 0.065 µM | 0.043 µM | 0.061 µM | 0.09 µM | 0.023 µM | 0.169 µM | 0.02 µM | 1.04 | 0.37 | 2.19 | 0.78
10 | CC(=O)O[C@H]1C(=O)[C@@]2(C)[C@H]([C@H](OC(=O)c3ccccc3)[C@]3(O)C[C@H](OC(=O)[C@H](OC(=O)CCCc4cn(CCCCCC(=O)N(CCCC[C@H](NC(=O)N[C@@H](CCC(=O)O)C(=O)O)C(=O)O)Cc5ccc(Br)cc5)nn4)[C@@H](NC(=O)c4ccccc4)c4ccccc4)C(C)=C1C3(C)C)[C@]1(OC(C)=O)CO[C@@H]1C[C@@H]2O | 0.045 µM | 0.51 µM | 1.13 µM | 0.876 µM | 0.038 µM | 0.094 µM | < 0.03 µM | 0.85 | 0.33 | 1.15 | 0.45
